Here are results for 16 molecules from US5817818A, “Androstenones” (Glaxo Wellcome Inc., priority 1996, dated 1998).

In assay [1] the test system is bovine adrenal 3β-hydroxy-Δ^5 -steroid dehydrogenase/3-keto-Δ^5 -steroid isomerase (3BHSD). The note with it: cited from earlier work.
The subject of assay [2] is porcine granulosa cell 3β-hydroxy-Δ^5 -steroid dehydrogenase/3-keto-Δ^5 -steroid isomerase (3BHSD). Particulars: cited from earlier work.
In assay [3] the target is T1, human type 1 5α-reductase (Homo sapiens, UniProt P18405).
T1 construct: made in house; host or cells: Sf9 insect cells, recombinant baculovirus; microsomes
T1 sequence (P18405 1-259): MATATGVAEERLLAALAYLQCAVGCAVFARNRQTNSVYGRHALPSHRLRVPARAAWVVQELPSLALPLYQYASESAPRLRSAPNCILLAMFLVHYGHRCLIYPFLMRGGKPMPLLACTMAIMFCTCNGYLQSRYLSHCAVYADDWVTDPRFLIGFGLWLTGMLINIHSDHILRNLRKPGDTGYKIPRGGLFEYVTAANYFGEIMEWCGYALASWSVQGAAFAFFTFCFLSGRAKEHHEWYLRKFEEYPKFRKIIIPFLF
As to the kind of experiment: Inhibition of human type 1 steroid 5α-reductase (microsomes; testosterone to DHT conversion). The format is biochemical. Particulars: 10 min preincubation, pH 7.0, 100 nM testosterone, 10-120 min, 1 mM NADPH; read-out: IC50 Human Type 1 5AR. How it is done: (§1) Enzyme activities may be determined using microsomes derived from: 1) prostate tissue from benign prostatic hyperplasia (BPH) patients; 2) recombinant baculovirus infected SF9 cells that express human type 1 5α-reductase; or 3) recombinant baculovirus infected SF9 cells that express human type 2 5α-reductase. Microsomes were prepared by homogenization of the tissue or cells, followed by differential centrifugation of the homogenate. Microsome extracts were incubated with varying concentrations of [1,2,6,7-^3 H]-testosterone, 1 mM NADPH, and varying amounts of the compounds of formula (I,) i.e. a test compound, in buffer containing a NADPH regenerating system capable of maintaining NADPH concentrations for a period of time within the range 0.5-240 minutes. Corresponding incubations were carried out with no test compound as a control study.
(§2) For type 1 IC50 measurements, assay components except testosterone were preincubated for 10 minutes at pH 7.0, and following the addition of 100 nM testosterone the assays were allowed to proceed for 10-120 minutes. For type 2 IC50 measurements, assay components except testosterone were preincubated for 20 minutes at pH 6.0, and following the addition of 8 nM testosterone the assays were allowed to proceed for 20-40 minutes. The percentage of conversion of testosterone to DHT in the presence of test compounds compared to the corresponding conversion in the control study was estimated using high performance liquid chromatography (HPLC) with radiochemical detection.

The target of assay [4] is T2, human type 2 5α-reductase (Homo sapiens, UniProt P31213).
T2 construct: made in house; host or cells: Sf9 insect cells, recombinant baculovirus; microsomes
T2 sequence (P31213 1-254): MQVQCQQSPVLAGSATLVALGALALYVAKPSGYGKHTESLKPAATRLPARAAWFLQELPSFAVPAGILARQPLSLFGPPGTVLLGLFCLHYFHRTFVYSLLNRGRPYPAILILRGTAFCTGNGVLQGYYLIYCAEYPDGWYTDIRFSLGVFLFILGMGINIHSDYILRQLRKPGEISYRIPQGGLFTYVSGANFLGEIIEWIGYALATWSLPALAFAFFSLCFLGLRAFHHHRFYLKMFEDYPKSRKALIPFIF
As to the kind of experiment: Inhibition of human type 2 steroid 5α-reductase (microsomes; testosterone to DHT conversion). The note with it: 20 min preincubation, pH 6.0, 8 nM testosterone, 20-40 min, 1 mM NADPH; read-out: IC50 Human Type 2 5AR. It is filed as biochemical. On the procedure:
as §1, §2

The target of another assay is T3, Human Adrenal 3BHSD (Homo sapiens, UniProt P26439).
T3 construct: microsomes derived from human adrenal tissues; from tissue; host or cells: human adrenal tissue, microsomes
T3 sequence (P26439 1-372): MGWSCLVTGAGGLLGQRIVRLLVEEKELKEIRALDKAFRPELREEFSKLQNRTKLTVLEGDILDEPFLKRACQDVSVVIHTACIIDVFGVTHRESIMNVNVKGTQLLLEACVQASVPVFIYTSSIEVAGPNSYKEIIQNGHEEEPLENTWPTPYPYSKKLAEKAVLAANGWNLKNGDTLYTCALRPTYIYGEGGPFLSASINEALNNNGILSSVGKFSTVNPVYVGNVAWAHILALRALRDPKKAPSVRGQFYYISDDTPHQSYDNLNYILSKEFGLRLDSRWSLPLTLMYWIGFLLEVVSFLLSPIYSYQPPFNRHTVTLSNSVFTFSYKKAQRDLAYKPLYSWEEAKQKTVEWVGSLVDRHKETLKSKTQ
As to the kind of experiment: Inhibition of human adrenal 3β-hydroxy-Δ^5-steroid dehydrogenase/3-keto-Δ^5-steroid isomerase (3BHSD) (microsomes; DHEA to androstenedione conversion). The format is biochemical. Particulars: 1 mM NAD+, pH 7.5, 1 to 60 minutes. On the procedure:
Enzyme activities are measured using microsomes derived from human adrenal tissues. Microsomes were prepared by homogenization of the tissue followed by differential centrifugation of the homogenate. Microsome extracts were incubated with varying concentrations of dehydroepiandrosterone (DHEA), 1 mM NAD+, and varying amounts of the compounds of Formula (I), i.e. a test compound, in pH 7.5 buffer for a period of time within the range of 1 to 60 minutes. Corresponding incubations were carried out with no test compound as a control study. The percentage of conversion of DHEA to androstenedione in the presence of test compounds compared to the corresponding conversion in the control study was estimated using HPLC with radiochemical detection.

Take `CCN(CC)C(=O)[C@H]1CC[C@H]2[C@@H]3CC[C@H]4N(C)C(=O)CC[C@]4(C)[C@H]3CC[C@]12C` [Compound 4-MA]: the “inhibition of bovine adrenal 3BHSD” value in assay [1] is “potent inhibition”. The “inhibition of porcine granulosa cell 3BHSD” value in assay [2] is recorded as “potent inhibition”.
As to `C[C@]12C=CC(=O)N[C@@H]1CC[C@@H]1[C@@H]2CC[C@]2(C)[C@@H](C(=O)NC3(c4cccc(C(F)(F)F)c4)CCCC3)CC[C@@H]12` [Compound 19, 17β-N-1-(3-Trifluoromethylphenyl)cyclopentylcarbamoyl-4-aza-5α-androst-1-en-3-one], the figures for the IC50 in assay [3] and in assay [4] were 0.001 to 0.01 µM and less than 0.001 µM, respectively. This molecule also had a Ki at Human Adrenal 3BHSD of more than 1 µM.
Regarding `CC(C)(C)c1ccc(C2(NC(=O)[C@H]3CC[C@H]4[C@@H]5CC[C@H]6NC(=O)C=C[C@]6(C)[C@H]5CC[C@]34C)CCSCC2)cc1` [Compound 20, 17β-N-4-(4-t-Butylphenyl)tetrahydrothiopyranylcarbamoyl-4-aza-5α-androst-1-en-3-one], the half-inhibitory concentration (IC50) in assay [3] and in assay [4] was less than 0.001 µM throughout. The same molecule returned a Ki at Human Adrenal 3BHSD of more than 1 µM.
For the molecule `CCC1(CC)CC1(NC(=O)[C@H]1CC[C@H]2[C@@H]3CC[C@H]4NC(=O)C=C[C@]4(C)[C@H]3CC[C@]12C)c1ccc(-c2ccccc2)cc1` (stereo partly drawn) [Compound 21, 17β-N-1-(4-Biphenyl)-2,2-diethylcyclopropylcarbamoyl-4-aza-5α-androst-1-en-3-one], the IC50 in assay [3] and in assay [4] was less than 0.001 µM throughout. This molecule displayed a Ki on Human Adrenal 3BHSD of more than 1 µM.
For the molecule `C[C@]12CCC(=O)N[C@@H]1CC[C@@H]1[C@@H]2CC[C@]2(C)[C@@H](C(=O)Nc3cc(C(F)(F)F)ccc3C(F)(F)F)CC[C@@H]12` [Compound 22, 17β-N-(2,5-bis(Trifluoromethyl))phenylcarbamoyl-4-aza-5α-androstan-3-one], the IC50 in assay [3] was 0.001 to 0.01 µM; in assay [4] it was less than 0.001 µM. Further, at Human Adrenal 3BHSD, the Ki was more than 1 µM.
As to `CN1C(=O)CC[C@]2(C)[C@H]3CC[C@]4(C)[C@@H](C(=O)Nc5cc(C(F)(F)F)ccc5C(F)(F)F)CC[C@H]4[C@@H]3CC[C@@H]12` [Compound 23, 17β-N-(2,5-bis(Trifluoromethyl))phenylcarbamoyl-4-methyl-4-aza-5α-androstan-3-one], the IC50 in assay [3] and in assay [4] was less than 0.001 µM in each case. At Human Adrenal 3BHSD, this molecule came in with a Ki of 0.01 to 10 µM.
Consider `CC(C)(C)c1ccc(C(F)(F)F)cc1NC(=O)[C@H]1CC[C@H]2[C@@H]3CC[C@H]4NC(=O)C=C[C@]4(C)[C@H]3CC[C@]12C` [Compound 24, 17β-N-(2-t-Butyl-5-trifluoromethyl)phenylcarbamoyl-4-aza-5α-androst-1-en-3-one], for which the IC50 in assay [3] was 0.001 to 0.01 µM; in assay [4] it was less than 0.001 µM. This molecule also registered a Ki on Human Adrenal 3BHSD of more than 1 µM.
The matching figures for `CC(C)(C)c1ccc(C(F)(F)F)cc1NC(=O)[C@H]1CC[C@H]2[C@@H]3CC[C@H]4NC(=O)CC[C@]4(C)[C@H]3CC[C@]12C` [Compound 25, 17β-N-(2-t-Butyl-5-trifluoromethyl)phenylcarbamoyl-4-aza-5α-androstan-3-one]: 0.001 to 0.01 µM, less than 0.001 µM and more than 1 µM.
For `CN1C(=O)CC[C@]2(C)[C@H]3CC[C@]4(C)[C@@H](C(=O)Nc5cc(C(F)(F)F)ccc5C(C)(C)C)CC[C@H]4[C@@H]3CC[C@@H]12` [Compound 26, 17β-N-(2-t-Butyl-5-trifluoromethyl)phenylcarbamoyl-4-methyl-4-aza-5α-androstan-3-one], in that order: less than 0.001 µM, less than 0.001 µM and 0.01 to 10 µM.
For `CC(C)(C)c1ccc(C(C)(C)C)c(NC(=O)[C@H]2CC[C@H]3[C@@H]4CC[C@H]5NC(=O)C=C[C@]5(C)[C@H]4CC[C@]23C)c1` [Compound 27, 17β-N-(2,5-Di-t-butyl)phenylcarbamoyl-4-aza-5α-androst-1-en-3-one], in that order: 0.001 to 0.01 µM, less than 0.001 µM and 0.01 to 10 µM.
As to `CC(C)(C)c1ccc(C(C)(C)C)c(NC(=O)[C@H]2CC[C@H]3[C@@H]4CC[C@H]5NC(=O)CC[C@]5(C)[C@H]4CC[C@]23C)c1` [Compound 28, 17β-N-(2,5-Di-t-butyl)phenylcarbamoyl-4-aza-5α-androstan-3-one], the values for the IC50 in assay [3] and in assay [4] were 0.001 to 0.01 µM and less than 0.001 µM, respectively. At Human Adrenal 3BHSD, this molecule registered a Ki of more than 1 µM.
With `CN1C(=O)CC[C@]2(C)[C@H]3CC[C@]4(C)[C@@H](C(=O)Nc5cc(C(C)(C)C)ccc5C(C)(C)C)CC[C@H]4[C@@H]3CC[C@@H]12` [Compound 29, 17β-N-(2,5-Di-t-butyl)phenylcarbamoyl-4-methyl-4-aza-5α-androstan-3-one], the IC50 in assay [3] and in assay [4] was less than 0.001 µM each time. The same molecule returned a Ki on Human Adrenal 3BHSD of 0.01 to 10 µM.
As for `C[C@H]1C[C@H]2NC(=O)C=C[C@]2(C)[C@H]2CC[C@]3(C)[C@@H](C(=O)Nc4cc(C(F)(F)F)ccc4C(F)(F)F)CC[C@H]3[C@H]12` [Compound 30, 17β-N-(2,5-bis(Trifluoromethyl))phenylcarbamoyl-4-aza-7β-methyl-5α-androst-1-en-3-one], the IC50 in assay [3] and in assay [4] was 0.001 to 0.01 µM each time. The molecule further displayed a Ki at Human Adrenal 3BHSD of more than 1 µM.
Regarding `C[C@H]1C[C@H]2NC(=O)C=C[C@]2(C)[C@H]2CC[C@]3(C)[C@@H](C(=O)Nc4cc(C(F)(F)F)ccc4C(C)(C)C)CC[C@H]3[C@H]12` [Compound 31, 17β-N-(2-t-Butyl-5-trifluoromethyl)phenylcarbamoyl-4-aza-7β-methyl-5α-androst-1-en-3-one], the IC50 in assay [3] and in assay [4] was 0.001 to 0.01 µM each time. The Ki at Human Adrenal 3BHSD is more than 1 µM.
Take `C[C@H]1C[C@H]2NC(=O)C=C[C@]2(C)[C@H]2CC[C@]3(C)[C@@H](C(=O)NC4(c5ccc(Cl)cc5)CCCC4)CC[C@H]3[C@H]12` [Compound 32, 17β-N-1-(4-Chlorophenyl)cyclopentylcarbamoyl-4-aza-7β-methyl-5α-androst-1-en-3-one]: the IC50 in assay [3] was 0.001 to 0.01 µM; in assay [4] it was less than 0.001 µM. At Human Adrenal 3BHSD, this molecule yielded a Ki of more than 1 µM.
The matching figures for `CC(C)(C)c1ccc(C2(NC(=O)[C@H]3CC[C@H]4[C@@H]5CC[C@H]6NC(=O)C=C[C@]6(C)[C@H]5CC[C@]34C)C3CCCC2CCC3)cc1` (stereo partly drawn) [Compound 33, 17β-N-9-(4-t-Butylphenyl)bicyclo[3.3.1]nonylcarbamoyl-4-aza-5α-androst-1-en-3-one]: 0.001 to 0.01 µM, less than 0.001 µM and more than 1 µM.

Usually IC50 stands for the midpoint of a concentration-inhibition curve. The term Ki denotes the dissociation constant of the complex between target and ligand, obtained from inhibition or displacement. Read a low Ki as a stronger hold on the target.
